Laboratory results: the supplement of paper PMC10307832

Assays:
Assay in all cases: relative viability (nuclei count vs DMSO), 5 days (fraction); higher = more cells survive
[1] = compound: C[C@]1(O)C[C@@H](c2nc(-c3ccc4ccc(-c5ccccc5)nc4c3)c3c(N)nccn32)C1 [Linsitinib] + Cc1nc(NC(=O)N2CCC[C@H]2C(N)=O)sc1-c1ccnc(C(C)(C)C(F)(F)F)c1 [Alpelisib] (partner 2 µM)
How it was run: (§1)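 A single step with final 0.05% Triton X-100, 1% formaldehyde and 1 ug/ml Hoechst fixed the cells and stained nuclei 5 days after treatment. Lung cancer cell lines in 1536-well plates had been treated by pin tool the day after seeding with one drug alone or a fixed anchor-drug dose plus five library-drug doses (not always all listed) in √10 steps, and nuclei were counted on 4× images. Relative viability is the ratio of nuclei in treated wells to nuclei in vehicle wells, taken as the median of duplicate plates.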

[2] = compound: C[C@]1(O)C[C@@H](c2nc(-c3ccc4ccc(-c5ccccc5)nc4c3)c3c(N)nccn32)C1 [Linsitinib] + Cc1nc(Nc2ncc(C(=O)Nc3c(C)cccc3Cl)s2)cc(N2CCN(CCO)CC2)n1 [Dasatinib] (partner 0.075 µM)
How it was run: as §1

[3] = compound: C[C@]1(O)C[C@@H](c2nc(-c3ccc4ccc(-c5ccccc5)nc4c3)c3c(N)nccn32)C1 [Linsitinib] + C[C@@H](Oc1cc(-c2cnn(C3CCNCC3)c2)cnc1N)c1c(Cl)ccc(F)c1Cl [Crizotinib] (partner 1 µM)
How it was run: as §1

[4] = compound: C[C@]1(O)C[C@@H](c2nc(-c3ccc4ccc(-c5ccccc5)nc4c3)c3c(N)nccn32)C1 [Linsitinib] + CS(=O)(=O)CCNCc1ccc(-c2ccc3ncnc(Nc4ccc(OCc5cccc(F)c5)c(Cl)c4)c3c2)o1 [Lapatinib] (partner 2 µM)
How it was run: as §1

| Cell Line | relative viability ([1]; first compound 0.01 µM) | relative viability ([1]; first compound 0.03162 µM) | relative viability ([1]; first compound 0.1 µM) | relative viability ([1]; first compound 0.3162 µM) | relative viability ([1]; first compound 1 µM) | relative viability ([2]; first compound 0.01 µM) | relative viability ([2]; first compound 0.03162 µM) | relative viability ([2]; first compound 0.1 µM) | relative viability ([2]; first compound 0.3162 µM) | relative viability ([2]; first compound 1 µM) | relative viability ([3]; first compound 0.01 µM) | relative viability ([3]; first compound 0.03162 µM) | relative viability ([3]; first compound 0.1 µM) | relative viability ([3]; first compound 0.3162 µM) | relative viability ([3]; first compound 1 µM) | relative viability ([4]; first compound 0.01 µM) | relative viability ([4]; first compound 0.03162 µM) | relative viability ([4]; first compound 0.1 µM) | relative viability ([4]; first compound 1 µM) | relative viability ([4]; first compound 0.3162 µM) |
| --- | --- | --- | --- | --- | --- | --- | --- | --- | --- | --- | --- | --- | --- | --- | --- | --- | --- | --- | --- | --- |
| NCI-H441 | 0.863 | 0.839 | 0.804 | 0.539 | 0.629 | 0.484 | 0.55 | 0.614 | 0.349 | 0.303 | 0.872 | 0.902 | 0.76 | 0.552 | 0.579 |  |  |  |  |  |
| NCI-H520 | 0.873 | 0.762 | 0.97 |  | 0.962 | 0.191 | 0.192 | 0.2 |  | 0.195 | 0.844 | 0.615 | 0.953 |  | 0.817 | 0.934 | 0.462 | 0.979 | 0.929 |  |
| CAL-12T | 1.18 | 1.18 | 1.24 | 0.99 | 1.07 | 0.362 | 0.359 | 0.485 | 0.178 | 0.273 | 0.641 | 0.596 | 0.625 | 0.556 | 0.467 | 0.705 | 0.613 | 0.655 | 0.518 | 0.576 |
| HCC-827 | 0.995 | 1.02 | 0.967 |  | 0.915 | 0.398 | 0.389 | 0.311 | 0.597 | 0.423 | 0.997 | 1.03 | 0.932 |  | 0.948 | 0.208 | 0.197 | 0.17 | 0.224 |  |
| LC-2-ad | 0.84 | 0.73 | 0.822 | 0.633 | 0.733 | 0.481 | 0.31 | 0.385 | 0.271 | 0.236 | 0.479 | 0.566 | 0.451 | 0.357 | 0.311 | 0.934 | 0.691 | 0.941 | 0.766 | 0.332 |
| NCI-H2170 | 0.865 | 0.777 | 0.698 | 0.745 | 0.68 | 0.56 | 0.569 | 0.519 | 0.409 | 0.488 | 1.12 | 1.02 | 1.2 | 0.89 | 1.11 | 0.266 | 0.256 | 0.276 | 0.228 | 0.256 |
| SW 1573 | 0.677 | 0.831 | 0.761 | 0.655 | 0.654 | 0.454 | 0.454 | 0.453 | 0.348 | 0.252 | 0.801 | 0.921 | 0.796 | 0.817 | 0.577 | 1.18 | 1.3 | 1.05 | 0.933 | 0.939 |
| SK-MES-1 | 0.9 | 1.02 | 0.907 | 0.814 | 0.854 | 0.297 | 0.351 | 0.257 | 0.323 | 0.289 | 0.955 | 1.06 | 1.01 | 0.826 | 0.931 | 0.434 | 0.456 | 0.467 | 0.435 | 0.462 |
| SW 900 |  |  |  |  |  | 0.537 | 0.739 | 0.85 | 0.319 | 0.322 |  |  |  |  |  |  |  |  |  |  |
| NCI-H1793 | 0.71 | 0.734 | 0.738 | 0.615 | 0.738 | 0.434 | 0.367 | 0.382 | 0.332 | 0.392 |  |  |  |  |  | 0.786 | 0.822 | 0.751 | 0.478 | 0.43 |
| NCI-H1299 | 1.05 | 1.07 | 1.12 | 1.01 | 1.04 |  |  |  |  |  | 0.96 | 0.975 | 1 | 0.949 | 0.931 | 0.989 | 0.89 | 0.996 | 1.01 | 0.952 |
| LCLC-97TM1 | 0.237 | 0.267 | 0.189 | 0.215 | 0.206 | 0.842 | 0.64 | 0.842 | 0.602 | 0.614 | 0.336 | 0.416 | 0.525 | 0.263 | 0.305 | 0.953 | 0.75 | 0.639 | 0.193 | 0.403 |
| NCI-H1915 | 1.08 | 1.15 | 1.14 | 0.913 | 0.878 | 0.306 | 0.351 | 0.299 | 0.331 | 0.234 | 0.944 | 0.918 | 0.936 | 0.796 | 0.754 | 0.984 | 1.01 | 0.981 | 0.723 | 0.608 |
| NCI-H661 | 0.593 | 0.539 | 0.46 | 0.667 | 0.449 | 0.899 | 0.815 | 0.946 | 0.722 | 0.768 |  | 0.862 | 1.04 | 0.85 | 0.93 | 0.566 | 0.501 | 0.514 | 0.424 | 0.691 |
| NCI-H2405 | 0.86 | 0.625 | 1.04 | 0.632 | 0.698 | 0.189 | 0.207 | 0.202 | 0.34 | 0.18 | 0.878 | 0.772 | 0.794 | 0.67 | 0.769 | 1.12 | 1.04 | 1.07 | 0.735 | 0.887 |
| NCI-H2347 | 1.01 | 1.21 | 1.01 | 0.595 | 0.902 | 0.3 | 0.339 | 0.317 |  | 0.3 | 0.705 | 0.84 | 0.715 | 0.589 | 0.669 | 0.821 | 0.998 | 0.969 | 0.772 | 0.461 |
| NCI-H1651 | 1.03 | 0.989 | 0.822 | 0.738 | 0.957 | 0.343 | 0.386 | 0.416 | 0.251 | 0.301 | 0.874 | 0.93 | 0.803 | 0.735 | 0.862 | 0.761 | 0.772 | 0.78 | 0.566 | 0.667 |
| H3255 | 0.605 | 0.858 | 0.732 | 0.591 | 0.771 | 0.347 | 0.369 | 0.347 | 0.334 | 0.344 | 0.84 | 0.817 | 0.95 | 0.773 | 0.813 | 0.247 | 0.284 | 0.19 | 0.206 | 0.245 |
